Laboratory results taken from patent US12296024B2, “Modified zinc oxide nanocomposite, antibiotic composition comprising the same, and combination preparation with the same” (UIF (University Industry Foundation), Yonsei University, priority 2021, dated 2025).

Test system: Aspergillus spores
Experiment: Effect of ions on fungal growth
Format: cell-based
Conditions: 1000 Aspergillus spores/dish, 37° C., day 3 of culture, FIG. 8B
Description: To investigate the effect of ions on fungal growth, salt solutions were added at a high molecular concentration (0.1 M, 10 μL) and a low molecular concentration ([…], 10 μL) and fungi were cultured at 37° C. under conditions of 1000 Aspergillus spores/dish. The results are illustrated in FIG. 8B based on the colonies on day 3 of culture.

O=[N+]([O-])[O-].O=[N+]([O-])[O-].[Zn+2] [Zn(NO3)2] was tested, and the “effect of ions on fungal growth compared with Na+, Mg2+ or NH4+ ions” value was “greater effect”.
[Cl-].[Cl-].[Zn+2] [ZnCl2] was tested, and the “effect of ions on fungal growth compared with Na+, Mg2+ or NH4+ ions” value was “greater effect”.
